The values below come from patent publication US20200155532A1, “METHOD FOR TREATING VIRAL INFECTIONS WITH LOPERAMIDE” (priority 2018, published 2020).

Where only a bound is given, the exact number is not on record here.

In this test the test system is herpes viral infections. The test is described as follows: treating herpes outbreaks with loperamide taken by mouth. Format: in vivo. The settings on record: herpes outbreak; patient taking loperamide. From the text: Referring to FIG. 1, the present invention may include a new use of loperamide 100 as an anti-viral agent. Herpes, which erupts during stress and may include repeated flare-ups over, sometimes, weeks may be treated with the new use of loperamide 100 disclosed herein, which tends to eliminate this recycling when taken at every flare-up. Specifically, the new use 100 of loperamide as an anti-viral agent may have the following steps: at the onset of symptoms, the user takes the recommended amount at the recommended time intervals, such as two 2 mg loperamide tablets four or five times a day, in step 110; if pain persists, the user may review the dosage, in step 120; after 72 hours, when pain has subsided and blisters are gone or only thin scabs, the patient may discontinue use in step 130; magnesium hydroxide may be used for bowel function during treatment, in step 140; and in the case of a new flare-up, the user-patient may repeat the dosage cycle in step 150.

Consider `CN(C)C(=O)C(CCN1CCC(O)(c2ccc(Cl)cc2)CC1)(c1ccccc1)c1ccccc1` [loperamide], for which the “effect on the virus's activity” value was “stop the virus's activity”, the “time to full recovery” value was “three” and the “time to stop the pain” value is at most 30 min.
